This is an account of results in patent US5077037A, “Novel compositions for magnetic resonance imaging” (Mallinckrodt Medical, Inc., priority 1990, dated 1991).

Data set [1] is described as follows: relaxivity rates (Bruker NMR MiniSpec, 20 MHz, 40° C.). The data set is classed as physicochemical.
The subject of another data set is mouse. As to the kind of experiment: mouse i.v. LD50 (acute toxicity). It is filed as in vivo. The conditions noted are these: 0.5M solution, confidence limit of 14.3-18.4 mmol/kg.
The mark [2] stands for this setting: sterile water for injection (SWFI).

With `O=C([O-])CN(CCN(CC(=O)[O-])CC(=O)NCC1CCCO1)CCN(CC(=O)[O-])CC(=O)NCC1CCCO1.[Gd+3]` (centres unmarked) [Example 2], in data set [1] (4% human serum albumin (HSA)), the “relaxivity rate T1” value is 4.8 mmol⁻¹ s⁻¹ and the “relaxivity rate T2” value stood at 4.8 mmol⁻¹ s⁻¹. Moreover, in data set [1] (setting [2]), the “relaxivity rate T1” value turned out to be 4.4 mmol⁻¹ s⁻¹ and the “relaxivity rate T2” value was 5.6 mmol⁻¹ s⁻¹. Besides, the LD50 value in the data set on mouse worked out at 16.2 mmol/kg.
